Measurements: patent US11008293B2, “5-carboxamide-2-thiobarbituric acids and use thereof as medicaments” (FONDAZIONE ISTITUTO ITALIANO DI TECNOLOGIA, priority 2017, dated 2021)

Experiments:
Assay type in all cases: cell-based
HeLa = assay: Antiproliferative activity on HeLa cancer cells; details: Homo sapiens
A549 = assay: Antiproliferative activity on A549 cancer cells; details: Homo sapiens
DU145 = assay: Antiproliferative activity on DU145 cancer cells; details: Homo sapiens, DU-145
MCF7 = assay: Antiproliferative activity on MCF7 cancer cells; details: Homo sapiens

| SMILES | IC50 (HeLa) [µM] | IC50 (A549) [µM] | IC50 (DU145) [µM] | IC50 (MCF7) [µM] |
| --- | --- | --- | --- | --- |
| COc1cc(NC(=O)c2c(O)n(-c3ccccc3)c(=S)n(-c3ccccc3)c2=O)cc(OC)c1O | 18.1 ± 0.8 | 17.5 ± 1.1 | 26.7 ± 0.1 | 53.5 ± 1.9 |
| O=C(Nc1ccc(O)cc1)c1c(O)n(-c2ccccc2)c(=S)n(-c2ccccc2)c1=O | 42.9 ± 6.1 | 37.1 ± 3.7 | 42.5 ± 7.7 | 66.1 ± 7.5 |
| COc1cccc(NC(=O)c2c(O)n(-c3ccccc3)c(=S)n(-c3ccccc3)c2=O)c1 | 8.5 ± 0.5 | 6.9 ± 0.2 | 12.5 ± 1.5 | 14 ± 0.9 |
| O=C(Nc1cccc(O)c1)c1c(O)n(-c2ccccc2)c(=S)n(-c2ccccc2)c1=O | 39.1 ± 0.7 | 59.4 ± 6.1 | 49.6 ± 2.7 | 94.2 ± 3.1 |
